Results reported in patent US20250332138A1, “PHARMACEUTICAL COMPOSITION FOR PREVENTING OR TREATING MENTAL DISORDER” (Vivozon, Inc., priority 2022, published 2025).
pIC50: −log10 of the molar value.

Tests used:
[1] = tested on: mouse; settings: mouse tail suspension test; cited from earlier work
[2] = tested on: test animals; settings: injected into the amygdala; cited from earlier work
[3] = tested on: test animals; settings: injected into the amygdala; cited from earlier work; remark: listed apart in the source
[4] = tested on: amygdala; settings: cited from earlier work
[5] = target: T1, mGluR5 (Homo sapiens, UniProt P41594); assay: Fluorescence-based Ca2+ mobilization assay; settings: HEK293 cell line overexpressing mGluR5; L-glutamate at EC80; Ca2+ level, FLIPR
T1 construct: expressed in transfected cells; host or cells: HEK293
Description: In order to measure the activity on the mGluR5, an experiment was carried out to check the change in the intracellular Ca^2+ level using the HEK293 cell line permenantly overexpressing the mGluR5. The cells in the cell culture medium were aliquoted into a 384-well plate coated with poly-D-lysine and cultured in a 37° C. incubator supplied with 5% CO2. The next day, the medium was removed and a dye loading buffer—in which a reagent capable of measuring Ca^2+ was dissolved—was added, and then incubated at 37° C. for 60 minutes. The test compounds were dissolved in 100% DMSO at a final concentration of 10 mM to make a stock solution. The starting concentration of 10 μM was prepared from the stock solution, followed by serial dilutions to prepare working solutions (test compound working solutions). The test compound working solutions were added to the cells that were incubated in the dye loading buffer, which were maintained for 30 minutes at room temperature in a light-shielding state before measurement. The Ca^2+ level change induced by L-glutamate at EC80 concentration was measured for 2 minutes using FLIPR Tetra (MDS Analytical Technologies). The fluorescent Ca^2+ signal values in the presence of the test compounds were normalized to the fluorescent singal elicited by EC80 concentration of L-glutamate as 100% and that elicited by vehicle as 0% to estimate % inhibition of the test compounds. The efficacy of the test compounds was calculated as IC50 values and represented in Table 2. (+: 500-1,000 nM, ++: 100-500 nM, +++: less than 100 nM).

[6] = target: T2, human 5-HT2A receptor (Homo sapiens, UniProt P28223); assay: HTRF-based IP1 accumulation assay; settings: HEK293 cell line overexpressing human 5-HT2A receptor; serotonin at EC80; IP1 production; read-out: Human 5-HT2AR (IC50)
T2 construct: expressed in transfected cells; host or cells: HEK293
Description: The 5-HT2A receptor antagonistic effect of the test compounds was confirmed by measuring the production amount of IP1 using the HEK293 cell line permanently overexpressing the human 5-HT2A receptor. The test compounds were dissolved in 100% DMSO to a final concentration of 10 mM. The starting concentration of 10 μM was prepared from the stock solution, followed by serial dilutions to prepare working solutions in a buffer containing lithium chloride (LiCl). The cells and compounds prepared in the test buffer were placed in a 96-well plate and incubated at room temperature for 10 minutes. Serotonin of EC80 concentration was added, followed by incubation at 37° C. for 30 minutes in a light-shielding state. To measure IP1 accumulation in cells, IP1-d2 acceptor and IP1-Cryptate donor—which are HTRF-based substances for fluorescence signals—were added and incubated for 1 hour at room temperature in a light-shielded state. The fluorescent emission signals of acceptor and donor were detected, and HTRF ratio values were substracted by mean value of serotonin control. The percentage of activation was calculated by normalization of the serotonin control (0%) and IP1 control (100%). The IC50 values of the test compounds are represented in Table 2. (+: 500-1,000 nM, ++: 100-500 nM, +++: less than 100 nM).

[7] = tested on: patients with cocaine use disorder; settings: 68 patients with cocaine use disorder; cited from earlier work
[8] = tested on: neurons in the ventral tegmental area; settings: cited from earlier work
[9] = tested on: cocaine-addicted rats; settings: cited from earlier work
[10] = tested on: male Sprague-Dawley rats; assay: Acquisition of morphine intravenous self-administration (prevention of drug addiction); format: in vivo, rat; settings: 8 days, vs solvent control
Description: The experimental animals and the experimental methods for intravenous self-administration were performed in a similar manner to Example 1, and Test Compounds A and C were used as the test compounds.
To investigate the preventive effect of the test compounds on morphine addiction, rats recovering from surgery were subjected to morphine intravenous self-administration (IVSA) for eight (8) consecutive days, with 2-hours sessions each day, using a fixed ratio of 1 (FR1) (0.1 mg/kg/infusion, 0.1 mL delivered within 4 seconds). Test compounds A and C were dissolved in water containing 0.5% HPMC (hydroxypropyl methylcellulose) and 1% Tween 80, and administered orally at doses of 5 mg/kg and 100 mg/kg, respectively, 2 hours before morphine IVSA. The preventive effects on acquisition of morphine IVSA were measured, and the results are represented in FIGS. 4 and 5.

[11] = tested on: rat; settings: rat forced swim test; cited from earlier work

T2 sequence (P28223 whole entry): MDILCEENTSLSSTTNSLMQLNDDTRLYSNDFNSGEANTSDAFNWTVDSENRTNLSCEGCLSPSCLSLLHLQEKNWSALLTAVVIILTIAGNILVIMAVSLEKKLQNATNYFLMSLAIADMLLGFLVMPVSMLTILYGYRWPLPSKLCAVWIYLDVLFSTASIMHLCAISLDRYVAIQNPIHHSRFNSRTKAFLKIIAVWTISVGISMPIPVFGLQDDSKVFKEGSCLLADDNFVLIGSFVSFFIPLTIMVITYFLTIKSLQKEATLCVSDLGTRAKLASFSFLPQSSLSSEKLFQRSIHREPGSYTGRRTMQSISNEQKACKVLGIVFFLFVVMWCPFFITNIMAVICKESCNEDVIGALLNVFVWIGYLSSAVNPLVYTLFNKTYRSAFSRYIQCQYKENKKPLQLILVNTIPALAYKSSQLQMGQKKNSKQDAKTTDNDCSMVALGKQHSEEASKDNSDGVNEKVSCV
T1 sequence (P41594 21-1212): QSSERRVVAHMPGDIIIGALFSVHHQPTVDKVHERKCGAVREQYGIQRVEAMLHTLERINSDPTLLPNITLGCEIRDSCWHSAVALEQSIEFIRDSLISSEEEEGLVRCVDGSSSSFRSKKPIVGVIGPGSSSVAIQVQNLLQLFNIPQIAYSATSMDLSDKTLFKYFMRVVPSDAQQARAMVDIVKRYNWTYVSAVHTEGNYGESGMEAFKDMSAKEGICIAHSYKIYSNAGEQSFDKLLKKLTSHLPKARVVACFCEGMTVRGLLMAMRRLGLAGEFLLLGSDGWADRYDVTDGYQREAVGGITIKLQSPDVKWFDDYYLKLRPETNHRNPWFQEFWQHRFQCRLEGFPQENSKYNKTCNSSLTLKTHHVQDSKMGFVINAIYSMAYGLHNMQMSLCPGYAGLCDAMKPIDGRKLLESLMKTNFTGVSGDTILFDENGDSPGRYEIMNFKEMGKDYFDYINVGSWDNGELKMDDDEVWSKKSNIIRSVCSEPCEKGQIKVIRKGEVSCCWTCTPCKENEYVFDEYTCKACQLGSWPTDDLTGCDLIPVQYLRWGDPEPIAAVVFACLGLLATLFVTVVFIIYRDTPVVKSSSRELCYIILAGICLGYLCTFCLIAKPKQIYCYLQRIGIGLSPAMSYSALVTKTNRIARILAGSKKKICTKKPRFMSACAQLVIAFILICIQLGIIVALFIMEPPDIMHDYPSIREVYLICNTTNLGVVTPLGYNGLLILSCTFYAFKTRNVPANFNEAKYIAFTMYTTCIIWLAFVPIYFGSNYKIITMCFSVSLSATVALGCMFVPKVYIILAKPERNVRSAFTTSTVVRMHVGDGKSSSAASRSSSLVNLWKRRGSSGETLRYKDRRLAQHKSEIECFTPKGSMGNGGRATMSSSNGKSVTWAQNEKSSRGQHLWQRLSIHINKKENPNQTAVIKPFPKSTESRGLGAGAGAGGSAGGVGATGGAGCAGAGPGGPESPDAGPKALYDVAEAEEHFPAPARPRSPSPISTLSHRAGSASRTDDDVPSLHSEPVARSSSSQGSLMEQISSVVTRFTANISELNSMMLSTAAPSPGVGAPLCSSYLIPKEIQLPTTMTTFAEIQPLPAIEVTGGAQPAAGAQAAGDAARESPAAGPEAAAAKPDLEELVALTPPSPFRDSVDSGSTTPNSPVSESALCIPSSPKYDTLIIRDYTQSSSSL

| Compound | pIC50 [5] | pIC50 [6] | also measured |
| --- | --- | --- | --- |
| Cc1cccc(C#Cc2ccccc2)n1 [MPEP] | – | – | immobility time [1]: decreased immobility time in a dose-dependent manner; time the test animals spend in the bright area [2]: increased; number of entries into the open arm [3]: increased; time the test animals spend in the open arm [3]: increased; formation of long-term potentiation (LTP) in the amygdala [4]: inhibiting |
| O=C(NCCC1CCOCC1)c1ccc(C#Cc2ccc(F)cc2F)cc1 [Compound 25, 4-((2,4-difluorophenyl)ethynyl)-N-(2-(tetrahydro-2H-pyran-4-yl)ethyl)benzamide] | 6.30 to 7.00 | > 7.00 | – |
| O=C(NCC1(O)CCCCC1)c1ccc(C#Cc2ccc(F)cc2F)cc1 [Compound 28, 4-((2,4-difluorophenyl)ethynyl)-N-((1-hydroxycyclohexyl)methyl)benzamide] | 6.00 to 6.30 | 6.30 to 7.00 | – |
| O=C(NCC1CCC1)c1ccc(C#Cc2ccc(F)cc2F)cc1 [Compound 30, N-(cyclobutylmethyl)-4-((2,4-difluorophenyl)ethynyl)benzamide] | 6.30 to 7.00 | 6.30 to 7.00 | – |
| COC(=O)N1CC[C@@H]2[C@H]1CCC[C@@]2(O)C#Cc1cccc(C)c1 [mavoglurant] | – | – | clinical efficacy [7]: confirmed |
| Cc1nc2sccn2c(=O)c1CCN1CCC(=C(c2ccc(F)cc2)c2ccc(F)cc2)CC1 [ritanserin] | – | – | dopamine secretion [8]: inhibited |
| O=C(NCC1(O)CCC1)c1ccc(C#Cc2ccc(F)cc2F)cc1 [Compound 29, 4-((2,4-difluorophenyl)ethynyl)-N-((1-hydroxycyclobutyl)methyl)benzamide] | 6.30 to 7.00 | > 7.00 | – |
| O=C(NCC1(O)CCCCC1)c1ccc(C#Cc2ccc(F)cc2)cc1 [Compound 26, 4-((4-fluorophenyl)ethynyl)-N-((1-hydroxycyclohexyl)methyl)benzamide] | > 7.00 | 6.30 to 7.00 | – |
| CC1(CNC(=O)c2ccc(C#Cc3ccc(F)cc3F)cc2)CCOCC1 [Compound 24, 4-((2,4-difluorophenyl)ethynyl)-N-((4-methyltetrahydro-2H-pyran-4-yl)methyl)benzamide] | > 7.00 | 6.30 to 7.00 | – |
| O=C(c1ccc(F)cc1)C1CCN(CCn2c(=O)[nH]c3ccccc3c2=O)CC1 [ketanserin] | – | – | cocaine-induced increase in dopamine ([8]; pretreatment): suppressed; self-administration restored by signal stimulation [9]: reduced |
| COc1cc(CC(C)N)c(OC)cc1I (stereo not drawn) [DOI, 1-[2,5-dimethoxy-4-iodophenyl]-2-aminopropane] | – | – | dopamine secretion [8]: promoted dopamine secretion |
| [2H]C(NC(=O)c1ccc(C#Cc2ccccc2F)cc1)C1(C)COC1 (stereo not drawn) [Compound 16, 4-((2-fluorophenyl)ethynyl)-N-((3-methyloxetan-3-yl)methyl-d)benzamide] | – | 6.30 to 7.00 | – |
| O=C(NCC1CCOCC1)c1ccc(C#Cc2ccccc2F)cc1 [Compound 1, 4-((2-fluorophenyl)ethynyl)-N-((tetrahydro-2H-pyran-4-yl)methyl)benzamide] | – | – | number of injections (acquisition of morphine self-administration) ([10]; 100 mg/kg orally 2 hours before morphine IVSA, FIG. 5): significantly lower |
| O=C(NC[C@H]1CCOC1)c1ccc(C#Cc2ccc(F)cc2F)cc1 [Compound 18, (R)-4-((2,4-difluorophenyl)ethynyl)-N-((tetrahydrofuran-3-yl)methyl)benzamide] | 6.30 to 7.00 | – | – |
| COc1cccc([C@H](O)C2CCN(CCc3ccc(F)cc3)CC2)c1OC [Compound M100907] | – | – | dopamine secretion [8]: inhibited |
| O=C(NCC1(O)CCC1)c1ccc(C#Cc2ccc(F)cc2)cc1 [Compound 27, 4-((4-fluorophenyl)ethynyl)-N-((1-hydroxycyclobutyl)methyl)benzamide] | > 7.00 | > 7.00 | – |
| CC1(O)CC(CNC(=O)c2ccc(C#Cc3ccccc3F)cc2)C1 (stereo not drawn) [Compound 12, 4-((2-fluorophenyl)ethynyl)-N-(((1s,3s)-3-hydroxy-3-methylcyclobutyl)methyl)benzamide] | > 7.00 | 6.30 to 7.00 | – |
| O=C(NC[C@@H]1CCOC1)c1ccc(C#Cc2ccc(F)cc2F)cc1 [Compound 19, (S)-4-((2,4-difluorophenyl)ethynyl)-N-((tetrahydrofuran-3-yl)methyl)benzamide] | 6.30 to 7.00 | – | – |
| Cc1nc(C#Cc2cccnc2)cs1 [MTEP, 3-[(2-methyl-1,3-thiazol-4-yl)ethynyl]pyridine] | – | – | immobility time [11]: reducing immobility time |
| CC1(CNC(=O)c2ccc(C#Cc3ccccc3F)cc2)COC1 [Compound 6, 4-((2-fluorophenyl)ethynyl)-N-((3-methyloxetan-3-yl)methyl)benzamide] | – | – | number of injections (acquisition of morphine self-administration) ([10]; 5 mg/kg orally 2 hours before morphine IVSA, FIG. 4): significantly lower |
